Structures can show the parent of a compound that is named as a salt.
How the values were obtained:
[1] = tested on: A549; experiment: Inhibition of cell viability (MTS), A549 (negative control line); assay type: cell-based; settings: A549 cells (negative control), 96 hours incubation
Procedure: (§1) Cells were maintained at 37° C. in a humidified atmosphere containing 5%-8% CO2 following the instructions of the supplier (American Type Culture Collection (Rockville, Md.)). Inhibition of cell viability was determined for a panel of tumor cell lines (MKN45, EBC1 and A549), using the soluble tetrazolium salt, MTS (Promega, Madison, Wis.). Cells were seeded at 2,000-7,500 cells/well in 96-well tissue culture plates and were allowed to attach for approximately 24 hours prior to addition of compounds or DMSO vehicle. […] Cells were treated in duplicate with test compounds. Compounds were serially diluted (1:2.5) from column 1 to 11 and column 12 contained DMSO vehicle. Compounds were diluted into cell growth medium then compound solution was added to cells. Equal amounts of DMSO were added to cells (final concentration is 0.5%). After background correction and normalization against DMSO-treated cells, EC50 values were calculated using non-linear curve-fitting of the cell viability as a function of compound concentration. The MKN45 and EBC1 cell lines contain high levels of phospho-Met and are dependent on cMET for proliferation, whereas the A549 line is used as negative control.
(§2) EC50 values may be calculated by non-linear curve fitting of the compound concentrations and fluorescence intensities to the standard EC50 equation.

[2] = target: T1, cMET enzyme (amino acids 1023-1360) (Homo sapiens, UniProt P08581); experiment: Determination of inhibition of cMET (capillary electrophoresis, phosphorylated peptide product); assay type: biochemical; settings: 1.2 nM cMET, 50 μM ATP, 2 μM FL-2 peptide, 2 hours room temperature
T1 construct: The cMET enzyme (amino acids 1023-1360) nominally at 24 μM was held at −80° C. until use; His tag (N, cleaved yes); made in house; host or cells: Sf9 cells
Procedure: The inhibitory property of a compound relative to cMET catalysis was determined by use of capillary electrophoresis with fluorescence quantification of a phosphorylated peptide product for cMET. The cMET enzyme (amino acids 1023-1360) nominally at 24 μM was held at −80° C. until use, in a buffer containing 25 mM Tris-HCl pH 8.5, 150 mM NaCl, 3 mM DTT and 10% glycerol. […] Following purification, the tag was removed and enzyme concentrated. […] To activate the enzyme fully, frozen cMET was thawed quickly and activated with the addition of assay buffer (50 mM HEPES pH 7.5, 10 mM NaCl, 10 mM MgCl2, 0.01% Brij® 35), 1.25 mM ATP, 5 mM MgCl2 and 5 mM DTT at a cMET concentration of 2.4 μM followed by a 30 minute incubation at room temperature. […] Next, cMET enzyme (1.2 nM final) was added and the system incubated at room temperature for 20 minutes. Catalysis was initiated by the addition of ATP (50 μM final). Assays were incubated at room temperature for 2 hours then quenched by the addition of EDTA. Phosphorylated peptide product was quantified by monitoring fluorescence during capillary electrophoresis with Caliper LifeSciences LabChip 3000 under the following settings: base pressure=−0.1 psi, screen pressure=−1.2 psi, downstream voltage=−500 V, upstream voltage=−2300 V, chip type=TC372. The elution buffer was identical to the assay buffer except for the absence of DTT, FL-2 and ATP and the addition of 0.1% coating reagent (Caliper). […] Peak height was quantified and used to determine enzyme velocities.
IC50 values were calculated by non-linear least squares curve fitting of the standard IC50 equation to background-corrected cMET velocity versus compound concentration.

[3] = tested on: EBC1; experiment: Inhibition of cell viability (MTS), EBC1; assay type: cell-based; settings: Homo sapiens, 96 hours incubation
Procedure: as §1, §2

[4] = tested on: MKN45; experiment: Inhibition of cell viability (MTS), MKN45; assay type: cell-based; settings: 96 hours incubation
Procedure: as §1, §2

[5] = Homo sapiens, MKN-45, 96 h, MKN45 cells

T1 sequence (P08581 1023-1360): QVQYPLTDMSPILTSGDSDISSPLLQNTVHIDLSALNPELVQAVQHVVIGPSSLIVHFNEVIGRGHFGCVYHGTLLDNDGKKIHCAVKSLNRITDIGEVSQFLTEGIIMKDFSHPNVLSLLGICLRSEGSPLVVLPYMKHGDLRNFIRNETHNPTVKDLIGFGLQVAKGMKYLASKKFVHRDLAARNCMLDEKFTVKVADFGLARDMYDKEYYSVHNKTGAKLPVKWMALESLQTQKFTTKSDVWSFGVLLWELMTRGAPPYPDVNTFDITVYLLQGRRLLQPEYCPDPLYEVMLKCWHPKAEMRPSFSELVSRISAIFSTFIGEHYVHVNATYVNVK

Row | EC50 ([1]; Homo sapiens, A549, 96 h) | IC50 [2] | EC50 [4, 5] | SMILES | EC50 ([3]; EBC-1, 96 h, EBC1 cells) | other results
1 | > 50000 nM | < 30 nM | < 100 nM | Cn1cc(-c2ccc3nnc(Sc4ccc5nc(NC(=O)C6CC6)cn5n4)n3c2)cn1 [Compound 5, N-(6-(6-(1-methyl-1H-pyrazol-4-yl)-[1,2,4]triazolo[4,3-a]pyridin-3-ylthio)-imidazo[1,2-b]pyridazin-2-yl)cyclopropanecarboxamide] | < 35 nM | –
2 | > 50000 nM | < 30 nM | < 30 nM | Cc1csc(-c2ccc3nnc(C(F)(F)c4ccc5nc(NC(=O)C6CC6)cn5n4)n3c2)c1 [Compound 84, N-(6-(difluoro(6-(4-methylthiophen-2-yl)-[1,2,4]triazolo[4,3-a]pyridin-3-yl)methyl)imidazo[1,2-b]pyridazin-2-yl)cyclopropanecarboxamide] | < 30 nM | –
3 | > 50000 nM | < 30 nM | 250 to 630 nM | O=C(Nc1cn2nc(Sc3nnc4ccc(-c5ccc(N6CCNCC6)cc5)cn34)ccc2n1)C1CC1 [Compound 36, N-(6-(6-(4-(piperazin-1-yl)phenyl)-[1,2,4]triazolo[4,3-a]pyridin-3-ylthio)imidazo[1,2-b]pyridazin-2-yl)cyclopropanecarboxamide] | 35 to 99 nM | –
4 | 8000 to 25000 nM | 60 to 100 nM | 250 to 630 nM | O=C(Nc1cn2nc(Cn3nnc4ccc(-c5ccccc5)cc43)ccc2n1)C1CC1 [Compound 15] | 100 to 199 nM | –
5 | – | 30 to 59 nM | – | Cn1cc(-c2ccc3nnn(Cc4ccc5nc(NC(=O)C6CC6)cn5n4)c3c2)cn1 [13 (HCl Salt), N-(6-((6-(1-methyl-1H-pyrazol-4-yl)-1H-benzo[d][1,2,3]triazol-1-yl)methyl)imidazo[1,2-b]pyridazin-2-yl)cyclopropanecarboxamide] | < 35 nM | EC50 [1]: 8000 to 25000 nM; EC50 ([4]; MKN45 cells): 100 to 249 nM
6 | > 50000 nM | > 630 nM | > 630 nM | Nc1cn2nc(Sc3nnc4ccccn34)ccc2n1 [Compound 114, 6-([1,2,4]triazolo[4,3-a]pyridin-3-ylthio)imidazo[1,2-b]pyridazin-2-amine] | > 630 nM | –
7 | > 50000 nM | < 30 nM | < 30 nM | O=C(Nc1cn2nc(C(F)(F)c3nnc4ccc(-c5cnn(CCO)c5)cn34)ccc2n1)C1CC1 [Compound 47, N-(6-(difluoro(6-(1-(2-hydroxyethyl)-1H-pyrazol-4-yl)-[1,2,4]triazolo[4,3-a]pyridin-3-yl)methyl)imidazo[1,2-b]pyridazin-2-yl)cyclopropanecarboxamide] | < 30 nM | –
8 | > 19500 nM | 30 to 59 nM | 100 to 249 nM | CCS(=O)(=O)c1cccc(-c2ccc3nnn(Cc4ccc5nc(NC(=O)C6CC6)cn5n4)c3c2)c1 [Compound 18] | 100 to 199 nM | –
9 | > 50000 nM | < 30 nM | < 30 nM | CC(c1ccc2nc(NC(=O)C3CC3)cn2n1)c1nnc2ccc(-c3cccc(C#N)c3)cn12 (stereo not shown) [Compound 57, N-(6-(1-(6-(3-cyanophenyl)-[1,2,4]triazolo[4,3-a]pyridin-3-yl)ethyl)imidazo[1,2-b]pyridazin-2-yl)cyclopropanecarboxamide] | < 30 nM | –
10 | > 50000 nM | < 30 nM | < 30 nM | NC(=O)c1cccc(-c2ccc3nnc(C(F)(F)c4ccc5nc(NC(=O)C6CC6)cn5n4)n3c2)c1 [Compound 90, 3-(3-((2-(cyclopropanecarboxamido)imidazo[1,2-b]pyridazin-6-yl)difluoromethyl)-[1,2,4]triazolo[4,3-a]pyridin-6-yl)benzamide] | < 30 nM | –
11 | – | 100 to 249 nM | – | COCCOCc1ccc2nnc(Sc3ccc4nc(NC(=O)C5CC5)cn4n3)n2c1 [Compound 112, N-(6-(6-((2-methoxyethoxy)methyl)-[1,2,4]triazolo[4,3-a]pyridin-3-ylthio)imidazo[1,2-b]pyridazin-2-yl)cyclopropanecarboxamide] | – | –
12 | – | < 30 nM | – | Cn1cc(-c2ccc3nnc(Sc4ccc5nc(NC(=O)C6CC6)cn5n4)n3c2)ccc1=O [Compound 105, N-(6-(6-(1-methyl-6-oxo-1,6-dihydropyridin-3-yl)-[1,2,4]triazolo[4,3-a]pyridin-3-ylthio)imidazo[1,2-b]pyridazin-2-yl)cyclopropanecarboxamide] | – | –
13 | – | 250 to 630 nM | – | Cc1c(F)ccc2nnc(Sc3ccc4nc(NC(=O)C5CC5)cn4n3)n12 [Compound 113, N-(6-(6-fluoro-5-methyl-[1,2,4]triazolo[4,3-a]pyridin-3-ylthio)imidazo[1,2-b]pyridazin-2-yl)cyclopropanecarboxamide] | – | –
14 | – | < 30 nM | – | NC(=O)c1ccc(-c2ccc3nnc(C(F)(F)c4ccc5nc(NC(=O)C6CC6)cn5n4)n3c2)cc1 [Compound 89, 4-(3-((2-(cyclopropanecarboxamido)imidazo[1,2-b]pyridazin-6-yl)difluoromethyl)-[1,2,4]triazolo[4,3-a]pyridin-6-yl)benzamide] | – | –
15 | – | > 100 nM | – | O=C(Nc1cn2cc(Cn3nnc4ncccc43)ccc2n1)C(F)(F)F [Compound 2, N-(6-((1H-[1,2,3]triazolo[4,5-b]pyridin-1-yl)methyl)imidazo-[1,2-a]pyridin-2-yl)-2,2,2-trifluoroacetamide] | – | –
16 | – | 250 to 630 nM | – | Cc1ccncc1-c1ccc2nnc(C(F)(F)c3ccc4nc(NC(=O)C5CC5)cn4n3)n2c1 [Compound 94, N-(6-(difluoro(6-(4-methylpyridin-3-yl)-[1,2,4]triazolo[4,3-a]pyridin-3-yl)methyl)imidazo[1,2-b]pyridazin-2-yl)cyclopropanecarboxamide] | – | –
17 | – | > 100 nM | – | Cc1ccn2c(Sc3ccc4nc(NC(=O)C5CC5)cn4n3)nnc2c1 [Compound 43, N-(6-(7-methyl-[1,2,4]triazolo[4,3-a]pyridin-3-ylthio)imidazo[1,2-b]pyridazin-2-yl)cyclopropanecarboxamide] | – | –
18 | – | < 30 nM | – | CNC(=O)c1ccc(-c2ccc3nnc(C(F)(F)c4ccc5nc(NC(=O)C6CC6)cn5n4)n3c2)cc1 [Compound 95, 4-(3-((2-(cyclopropanecarboxamido)imidazo[1,2-b]pyridazin-6-yl)difluoromethyl)-[1,2,4]triazolo[4,3-a]pyridin-6-yl)-N-methylbenzamide] | – | –
19 | – | > 100 nM | – | O=C(Nc1cn2cc(Cn3nnc4cccnc43)ccc2n1)C(F)(F)F [Compound 1, N-(6-((3H-[1,2,3]triazolo[4,5-b]pyridin-3-yl)methyl)imidazo[1,2-a]pyridin-2-yl)-2,2,2-trifluoroacetamide] | – | –
20 | – | 30 to 59 nM | – | Cn1cc(-c2ccc3nnc(C(F)(F)c4ccc5nc(NC(=O)C6CC6)cn5n4)n3c2)cn1 [45 (TFA Salt), N-(6-(difluoro(6-(1-methyl-1H-pyrazol-4-yl)-[1,2,4]triazolo[4,3-a]pyridin-3-yl)methyl)imidazo[1,2-b]pyridazin-2-yl)cyclopropanecarboxamide] | – | –
21 | – | < 30 nM | – | CCn1cc(-c2ccc3nnc(Sc4ccc5nc(NC(=O)C6CC6)cn5n4)n3c2)ccc1=O [Compound 106, N-(6-(6-(1-ethyl-6-oxo-1,6-dihydropyridin-3-yl)-[1,2,4]triazolo[4,3-a]pyridin-3-ylthio)imidazo[1,2-b]pyridazin-2-yl)cyclopropanecarboxamide] | – | –

Row | SMILES | EC50 ([1]; Homo sapiens, A549, 96 h) | IC50 [2] | EC50 [4, 5] | EC50 ([3]; EBC-1, 96 h, EBC1 cells) | other results
22 | N#Cc1cc(-c2ccc3nnc(Sc4ccc5nc(NC(=O)C6CC6)cn5n4)n3c2)ccc1OCCO [Compound 107, N-(6-(6-(3-cyano-4-(2-hydroxyethoxy)phenyl)-[1,2,4]triazolo[4,3-a]pyridin-3-ylthio)imidazo[1,2-b]pyridazin-2-yl)cyclopropanecarboxamide] | – | < 30 nM | – | – | EC50 ([1]; Homo sapiens): > 50000 nM; EC50 ([3]; EBC-1, EBC1 cells): 60 to 100 nM; EC50 ([4]; Homo sapiens, MKN-45, MKN45 cells): 100 to 249 nM

Reference: patent US8178534B2, “cMET inhibitors” (Takeda Pharmaceutical Company Limited, priority 2008, dated 2012)
